{
  "source": "patent US4251628A",
  "about": "“Substrates for angiotensin converting enzyme” (priority 1978, dated 1981)",
  "key": {"[1]": {"target": "T1, angiotensin converting enzyme (ACE) (Homo sapiens, UniProt P12821)", "T1 construct": "Serum was prepared from fresh whole blood by standard techniques; from tissue; host or cells: serum (unfractionated)", "T1 sequence (P12821 30-1232 limits assumed)": "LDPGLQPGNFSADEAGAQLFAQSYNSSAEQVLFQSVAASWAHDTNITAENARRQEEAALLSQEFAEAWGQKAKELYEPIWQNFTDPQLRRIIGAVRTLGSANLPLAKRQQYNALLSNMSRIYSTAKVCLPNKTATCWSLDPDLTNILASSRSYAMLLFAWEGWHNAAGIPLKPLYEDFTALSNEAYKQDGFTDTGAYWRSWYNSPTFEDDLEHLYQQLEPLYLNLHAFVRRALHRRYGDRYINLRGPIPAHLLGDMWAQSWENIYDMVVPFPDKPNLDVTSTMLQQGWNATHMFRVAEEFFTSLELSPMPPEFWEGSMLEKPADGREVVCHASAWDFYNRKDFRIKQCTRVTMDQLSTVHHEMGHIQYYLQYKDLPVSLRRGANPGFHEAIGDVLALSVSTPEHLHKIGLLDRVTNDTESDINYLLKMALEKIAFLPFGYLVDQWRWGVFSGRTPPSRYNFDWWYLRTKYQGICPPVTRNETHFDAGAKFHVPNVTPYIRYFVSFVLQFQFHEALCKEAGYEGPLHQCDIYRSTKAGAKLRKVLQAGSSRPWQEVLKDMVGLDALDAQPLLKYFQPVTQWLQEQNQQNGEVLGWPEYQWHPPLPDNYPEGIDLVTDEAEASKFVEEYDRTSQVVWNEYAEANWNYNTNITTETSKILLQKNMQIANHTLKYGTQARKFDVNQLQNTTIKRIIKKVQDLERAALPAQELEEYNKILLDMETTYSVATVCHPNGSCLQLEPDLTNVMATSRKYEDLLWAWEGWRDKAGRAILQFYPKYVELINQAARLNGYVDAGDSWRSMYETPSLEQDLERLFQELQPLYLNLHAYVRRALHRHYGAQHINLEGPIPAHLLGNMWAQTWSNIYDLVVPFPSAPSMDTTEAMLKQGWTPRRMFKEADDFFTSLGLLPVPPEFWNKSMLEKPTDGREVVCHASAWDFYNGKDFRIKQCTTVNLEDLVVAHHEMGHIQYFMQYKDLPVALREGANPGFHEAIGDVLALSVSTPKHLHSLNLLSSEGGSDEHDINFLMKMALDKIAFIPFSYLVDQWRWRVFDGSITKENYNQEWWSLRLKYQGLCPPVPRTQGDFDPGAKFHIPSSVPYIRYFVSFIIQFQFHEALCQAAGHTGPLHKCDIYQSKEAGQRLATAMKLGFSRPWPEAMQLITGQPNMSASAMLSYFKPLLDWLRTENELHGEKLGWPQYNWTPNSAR", "assay": "ACE assay: hydrolysis of ^3H-HipGlyGly by human serum, Lineweaver-Burke Km", "assay_type": "biochemical", "procedure": "The following sample illustrates the preferred assay method, the sensitivity of the assay and the Km for ^3 H-HipGlyGly. The reaction buffer contains 0.05 M Hepes, 0.1 M sodium chloride and 0.6 M sodium sulphate at pH 8.0. (Pepes is N-2-Hydroxyethyl piperazine N'-2-ethane sulfonic acid.) The substrate, ^3 H-HipGlyGly was dissolved in reaction buffer at a concentration of 16 mM and a specific radioactivity of about 0.15 millicuries/millimole. Serum was prepared from fresh whole blood by standard techniques. […] Hemolyzed samples were not used in the assay. Serum samples could be stored at least for one week at 2° C. to 8° C. or for at least 8 weeks frozen, prior to assaying. For the assay, 50 μl. of serum was diluted with 200 μl. of reaction buffer. All the reactions were carried out in glass tubes due to the potentially destructive action of ethyl acetate on plastic.\nThe reaction mixture was composed of 50 μl. of diluted serum, an appropriate amount of substrate solution depending on the final substrate concentration desired, and reaction buffer sufficient to give a total reaction volume of 100 μl. All reaction tubes were incubated for 60 minutes at 37° C. Reactions were terminated by the addition of 1.0 ml. of 0.1 N hydrochloric acid. The reaction mixture was then extracted with 1.0 ml. ethyl acetate, by rotary agitation for 4-5 seconds. The phases were separted by centrifugation at 1000×G for ten minutes. A 0.5 ml. sample of the ethyl acetate (upper) layer was removed and tranferred to a scintillation vial containing 10 ml. scintillation fluid. (Riafluor, Trademark, New England Nuclear Corp., Boston, Mass.)\n(§1) A control determination of background radioactivity was made using 50 μl. of reaction buffer instead of diluted serum in the reaction mixture. The purpose of this control was to determine the number of total counts attributable to background radiation, non-specific release of hippuric acid and the presence of unreacted substrate in the ethyl acetate phase. Less than 7% of the ^3 H-HipGly Gly entered the organic phase. Total radioactivity was determined by counting an amount of substrate equal to that used in the reaction mixture directly in the scintillation counter.\nReaction velocity, in terms of nanomoles of product formed per minute per ml of serum was calculated according to the following formula: [formula] In this formula, \"nmoles\" means nanomoles, \"min\" means minutes, \"ml\" means milliliters and \"cpm\" means radioactivity counts per minute. The factor of 2 is a correction for the aliquot size. In the case where a significant fraction of substrate has been hydrolyzed, and the substrate in one which is more soluble in the organic phase, as for example, ^125 I-HPPGlyGlyGly, a modified formula is used to take account of the decreasing amount of substrate as the reaction progresses: [formula]\nReciprocal values of initial substrate concentration and reaction velocity were calculated and graphed according to the method of Lineweaver and Burke, as shown in FIG. 1. A straight line was obtained, which intercepted the ordinate at a value equal to the reciprocal of the maximum velocity of the enzyme reaction and intercepted the abcissa at a value equal to the negative reciprocal of the apparent Michaelis constant. […] It can be seen that reaction velocities as low as 12 nanomoles of substrate hydrolyzed per minute per ml. of serum can readily be measured."}, "[2]": {"system": "angiotensin converting enzyme (ACE)", "conditions": "similar reaction conditions, enzyme from hog lung (Dorer et al.); cited from earlier work"}, "[3]": {"system": "angiotensin converting enzyme (ACE)", "assay": "ACE-catalyzed hydrolysis: Km, pH, chloride and buffer dependence", "assay_type": "biochemical", "conditions": "by substrate", "description": "(§2) Reaction conditions optimal for carrying out an ACE catalyzed hydrolysis of a substrate of the present invention are the same as have been previously described for substrates known in the prior art. Detailed studies of optimal conditions using HipGlyGly as substrate have been reported by Dorer, et al. The pH optimum is approximately 8.0 although greater than 50% maximal activity is obtained in the pH range 7.0-9.0, in the presence of 1 M NaCl. […] The relationship between the chloride requirement and the ionic strength requirement has not been fully characterized. […] Phosphate is inhibitory. Hepes, bicine and barbital buffers are suitable for use but Hepes is preferred because it provides maximum activity. Preferred conditions of buffer composition, ionic strength, pH and temperature are described in Example 1. […] The pH range for usable enzyme activity is from pH 6.5 to pH 8.7, with a broad plateau of maximal activity ranging from pH 7.2 to pH 8.5. Optimal substrate concentration depends upon the apparent Km, for the substrate compared with the Km's of possible competing substances in the sample. A substrate having a relatively low Km, such as ^3 H-benzoylProPheArg (Km 2×10^-4 M) could be suitably used at a concentration less than its Km. A substrate having a higher Km might better be used at a concentration greater than its Km. […] Because its Km is the lowest of any of the substrates of the present invention, ^3 H-benzoylProPheArg is the most preferred substrate for assays where ACE activity is low and maximum sensitivity is desired. In addition to being less sensitive to competitive inhibition, assays carried out with this substrate are potentially able to measure lower levels of ACE than the other substrates disclosed herein. Additionally, its partition behavior in an aprotic organic solvent is extremely favorable: only about 3% entered ethyl acetate in a preliminary extraction experiment. The remnant product Benzoylproline was about 90% extracted."}, "[4]": {"system": "angiotensin converting enzyme (ACE)", "conditions": "HipGlyGly as substrate, cited from earlier work"}, "serum carboxypeptidase": {"system": "serum carboxypeptidase", "assay": "Sensitivity to serum carboxypeptidase", "assay_type": "biochemical"}, "[5]": {"assay": "Extraction (partition) into ethyl acetate", "assay_type": "physicochemical", "description": "as §2\nThe remnant reaction product may be extracted from the reaction mixture by an aprotic organic solvent which affords a reasonably quantitative separation of product from substrate. The use of solvents which may interfere with the counting process is to be avoided. Ethyl acetate is preferred. Approximately 91% of ^3 H-Hippuric acid is extracted into ethyl acetate. Extraction may be carried out by any suitable means familiar to those skilled in the art, such as shaking, agitating, mixing and the like. Separation of the phases is conveniently accomplished by centrifugation. Centrifugation at 1000×G for ten minutes is preferred, either at room temperature or in a refrigerated centrifuge. In some cases, an emulsion will form which can be separated by a longer centrifugation step.\nas §1, with “counter. […]” for “counter.”"}, "[6]": {"target": "T2, angiotensin converting enzyme (ACE) (Cavia porcellus, UniProt H0UWL7)", "T2 construct": "native circulating soluble form, expected to be shed somatic ACE", "T2 sequence (H0UWL7 33-1234)": "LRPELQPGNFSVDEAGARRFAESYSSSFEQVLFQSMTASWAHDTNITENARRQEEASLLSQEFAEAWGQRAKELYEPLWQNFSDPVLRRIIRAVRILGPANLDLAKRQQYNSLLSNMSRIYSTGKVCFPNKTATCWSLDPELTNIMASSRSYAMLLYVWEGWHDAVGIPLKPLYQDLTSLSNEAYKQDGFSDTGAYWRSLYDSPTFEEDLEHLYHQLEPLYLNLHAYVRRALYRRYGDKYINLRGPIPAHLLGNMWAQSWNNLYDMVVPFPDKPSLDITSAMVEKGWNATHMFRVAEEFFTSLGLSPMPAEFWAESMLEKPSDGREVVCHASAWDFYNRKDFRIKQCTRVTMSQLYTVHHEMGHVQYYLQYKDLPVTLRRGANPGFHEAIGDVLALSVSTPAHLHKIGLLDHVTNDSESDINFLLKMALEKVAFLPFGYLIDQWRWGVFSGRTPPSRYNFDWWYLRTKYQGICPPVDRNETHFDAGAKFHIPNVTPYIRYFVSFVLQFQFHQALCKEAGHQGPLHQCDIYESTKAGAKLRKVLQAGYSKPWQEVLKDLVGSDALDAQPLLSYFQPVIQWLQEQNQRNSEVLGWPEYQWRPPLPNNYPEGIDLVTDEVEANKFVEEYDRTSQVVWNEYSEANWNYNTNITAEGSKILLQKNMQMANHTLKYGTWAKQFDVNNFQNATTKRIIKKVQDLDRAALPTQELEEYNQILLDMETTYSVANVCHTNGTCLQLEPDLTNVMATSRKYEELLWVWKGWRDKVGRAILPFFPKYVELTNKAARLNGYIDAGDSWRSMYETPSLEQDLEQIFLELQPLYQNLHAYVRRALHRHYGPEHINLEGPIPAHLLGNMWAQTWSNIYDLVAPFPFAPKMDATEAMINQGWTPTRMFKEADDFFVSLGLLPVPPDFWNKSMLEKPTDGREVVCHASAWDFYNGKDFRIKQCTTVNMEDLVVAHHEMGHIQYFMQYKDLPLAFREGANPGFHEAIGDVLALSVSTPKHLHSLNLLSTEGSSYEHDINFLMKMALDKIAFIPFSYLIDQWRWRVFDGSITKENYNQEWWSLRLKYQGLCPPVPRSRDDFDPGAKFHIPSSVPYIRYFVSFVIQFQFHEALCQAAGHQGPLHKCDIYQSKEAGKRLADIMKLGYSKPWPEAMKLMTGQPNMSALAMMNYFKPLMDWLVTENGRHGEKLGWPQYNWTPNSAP", "assay": "Hydrolysis of ^125I-HPPGlyGlyGly by guinea pig serum ACE", "assay_type": "biochemical", "procedure": "The standard assay conditions as described in Example 1 were employed except that the source of ACE was guinea pig serum and the amount of substrate added was that amount needed to give 101,436 total counts per minute. In terms of mass, this amount is believed to be well below the Km for the substrate. Samples were incubated for 15 minutes, 30 minutes and 60 minutes, and an unreacted sample (0 time) was used to determine the amount of substrate extracted into ethyl acetate."}},
  "data": [
    {"smiles": "[3H]c1ccc(C(=O)NCC(=O)NCC(=O)NCC(=O)O)cc1", "note": "[^3 H-HipGlyGly, ^3 H-hippurylglycylglycine]", "values": [
      {"measurement": "Reciprocal of reaction velocity", "setting": "[1]; [S] 1.82 mM", "value": 0.0504},
      {"measurement": "Velocity", "setting": "[1]; [S] 1.82 mM", "value": "19.83 nanomoles of product formed pe"},
      {"measurement": "Reciprocal of reaction velocity", "setting": "[1]; [S] 3.64 mM", "value": 0.0289},
      {"measurement": "Velocity", "setting": "[1]; [S] 3.64 mM", "value": "34.65 nanomoles of product formed pe"},
      {"measurement": "Reciprocal of reaction velocity", "setting": "[1]; [S] 5.45 mM", "value": 0.0214},
      {"measurement": "Velocity", "setting": "[1]; [S] 5.45 mM", "value": "46.76 nanomoles of product formed pe"},
      {"measurement": "Reciprocal of reaction velocity", "setting": "[1]; [S] 7.27 mM", "value": 0.0191},
      {"measurement": "Velocity", "setting": "[1]; [S] 7.27 mM", "value": "52.48 nanomoles of product formed pe"},
      {"measurement": "Reciprocal of reaction velocity", "setting": "[1]; [S] 9.09 mM", "value": 0.0183},
      {"measurement": "Velocity", "setting": "[1]; [S] 9.09 mM", "value": "54.63 nanomoles of product formed pe"},
      {"measurement": "Reciprocal of reaction velocity", "setting": "[1]; [S] .91 mM", "value": 0.0810},
      {"measurement": "Velocity", "setting": "[1]; [S] .91 mM", "value": "12.35 nanomoles of product formed pe"},
      {"measurement": "Assay sensitivity (lowest measurable enzyme activity)", "setting": "[1]; assay condition of Example 1", "value": "8 units of enzyme per ml"},
      {"measurement": "Km", "setting": "[2]", "value": 2600, "unit": "µM"},
      {"measurement": "Chloride / ionic strength requirement of the ACE-catalyzed hydrolysis", "setting": "[3]", "value": "requires chloride ions"},
      {"measurement": "pH range with greater than 50% maximal activity", "setting": "[4]; 1 M NaCl", "value": "7.0-9.0"},
      {"measurement": "pH optimum of ACE-catalyzed hydrolysis", "setting": "[4]; Dorer et al.", "value": "approximately 8.0"},
      {"measurement": "Sensitivity to serum carboxypeptidase", "setting": "serum carboxypeptidase", "value": "insensitive to serum carboxypeptidase"},
      {"measurement": "Fraction extracted into ethyl acetate", "setting": "[5]", "value": "Less than 7%"}
    ]},
    {"smiles": "O=C(O)CNC(=O)CNC(=O)CNC(=O)CCc1ccc(O)c([125I])c1", "note": "[^125 I-HPPGlyGlyGly, ^125 I-p-hydroxyphenylpropionylglycylglycylglycine]", "values": [
      {"measurement": "Chloride / ionic strength requirement of the ACE-catalyzed hydrolysis", "setting": "[3]", "value": "requires chloride ions"},
      {"measurement": "Net cpm in product", "setting": "[6]; incubation 0 min", "value": 0, "unit": "cpm"},
      {"measurement": "cpm in Ethyl Acetate phase", "setting": "[6]; incubation 0 min", "value": "27,205 cpm"},
      {"measurement": "Net cpm in product", "setting": "[6]; incubation 15 min", "value": "17,808 cpm"},
      {"measurement": "cpm in Ethyl Acetate phase", "setting": "[6]; incubation 15 min", "value": "40,000 cpm"},
      {"measurement": "Net cpm in product", "setting": "[6]; incubation 30 min", "value": "43,804 cpm"},
      {"measurement": "cpm in Ethyl Acetate phase", "setting": "[6]; incubation 30 min", "value": "59,182 cpm"},
      {"measurement": "Net cpm in product", "setting": "[6]; incubation 60 min", "value": "58,044 cpm"},
      {"measurement": "cpm in Ethyl Acetate phase", "setting": "[6]; incubation 60 min", "value": "69,577 cpm"},
      {"measurement": "Sensitivity to serum carboxypeptidase", "setting": "serum carboxypeptidase", "value": "insensitive to serum carboxypeptidase"},
      {"measurement": "Fraction extracted into ethyl acetate", "setting": "[5]", "value": 27.2, "unit": "%"}
    ]}
  ]
}
